Source: ChEMBL document CHEMBL1154314, “Synthesis and antitumor activities of 3-modified 2-methoxyestradiol analogs” (Bioorg Med Chem Lett, 2009)

Assays:
HUVEC = assay: Antiangiogenic activity in HUVEC assessed as inhibition of cell proliferation; format: functional, cell-based; conditions: Homo sapiens
MDA-MB-231 = assay: Antiproliferative activity against human MDA-MB-231 cells; format: functional, cell-based

Row | SMILES | IC50 (HUVEC) | IC50 (MDA-MB-231)
1 | COc1cc2c(cc1NC=O)CC[C@@H]1[C@@H]2CC[C@]2(C)[C@@H](O)CC[C@@H]12 | 0.07 µM | 0.78 µM
2 | COc1cc2c(cc1S)CC[C@@H]1[C@@H]2CC[C@]2(C)[C@@H](O)CC[C@@H]12 | 12.9 µM | 56.2 µM
3 | C=Cc1cc2c(cc1OC)[C@H]1CC[C@]3(C)[C@@H](O)CC[C@H]3[C@@H]1CC2 | 1.96 µM | 8.93 µM
4 | COc1cc2c(cc1C(N)=O)CC[C@@H]1[C@@H]2CC[C@]2(C)[C@@H](O)CC[C@@H]12 | 2.59 µM | 2.36 µM
5 | COc1cc2c(cc1N)CC[C@@H]1[C@@H]2CC[C@]2(C)[C@@H](O)CC[C@@H]12 | 2.32 µM | 2.48 µM
6 | COC(=O)Nc1cc2c(cc1OC)[C@H]1CC[C@]3(C)[C@@H](O)CC[C@H]3[C@@H]1CC2 | 5.92 µM | 17.6 µM
7 | COc1cc2c(cc1OS(=O)(=O)C(F)(F)F)CC[C@@H]1[C@@H]2CC[C@]2(C)[C@@H](O)CC[C@@H]12 | 3.27 µM | 21.4 µM
8 | COc1cc2c(cc1Cl)CC[C@@H]1[C@@H]2CC[C@]2(C)[C@@H](O)CC[C@@H]12 | 7.45 µM | 26.9 µM
9 | COc1cc2c(cc1Br)CC[C@@H]1[C@@H]2CC[C@]2(C)[C@@H](O)CC[C@@H]12 | 9.13 µM | 27.5 µM
10 | COc1cc2c(cc1OC)[C@H]1CC[C@]3(C)[C@@H](O)CC[C@H]3[C@@H]1CC2 | 31.5 µM | 43.7 µM
11 | CCc1cc2c(cc1OC)[C@H]1CC[C@]3(C)[C@@H](O)CC[C@H]3[C@@H]1CC2 | 5.44 µM | 46.9 µM
12 | COc1cc2c(cc1CO)CC[C@@H]1[C@@H]2CC[C@]2(C)[C@@H](O)CC[C@@H]12 | 28.2 µM | 55.6 µM
13 | COc1ccc2c(c1)[C@H]1CC[C@]3(C)[C@@H](O)CC[C@H]3[C@@H]1CC2 | 22.1 µM | 62 µM
14 | COc1cc2c(cc1N(C)C)CC[C@@H]1[C@@H]2CC[C@]2(C)[C@@H](O)CC[C@@H]12 | 2.82 µM | 103 µM
15 | COc1cc2c(cc1NC(N)=O)CC[C@@H]1[C@@H]2CC[C@]2(C)[C@@H](O)CC[C@@H]12 | 0.59 µM | 0.65 µM
16 | COc1cc2c(cc1C#N)CC[C@@H]1[C@@H]2CC[C@]2(C)[C@@H](O)CC[C@@H]12 | 2.65 µM | 8.98 µM
17 | COc1cc2c(cc1NS(N)(=O)=O)CC[C@@H]1[C@@H]2CC[C@]2(C)[C@@H](O)CC[C@@H]12 | 3.88 µM | 9.47 µM
18 | COc1cc2c(cc1NS(=O)(=O)C(F)(F)F)CC[C@@H]1[C@@H]2CC[C@]2(C)[C@@H](O)CC[C@@H]12 | 46.2 µM | > 100 µM
19 | CNC(=O)c1cc2c(cc1OC)[C@H]1CC[C@]3(C)[C@@H](O)CC[C@H]3[C@@H]1CC2 | > 100 µM | > 100 µM
20 | COc1cc2c(cc1C(=O)O)CC[C@@H]1[C@@H]2CC[C@]2(C)[C@@H](O)CC[C@@H]12 | > 100 µM | > 100 µM
21 | COc1cc2c(cc1NC#N)CC[C@@H]1[C@@H]2CC[C@]2(C)[C@@H](O)CC[C@@H]12 | 0.47 µM | 0.62 µM
22 | COC(=O)c1cc2c(cc1OC)[C@H]1CC[C@]3(C)[C@@H](O)CC[C@H]3[C@@H]1CC2 | > 100 µM | > 100 µM
23 | COc1cc2c(cc1C(=O)N(C)C)CC[C@@H]1[C@@H]2CC[C@]2(C)[C@@H](O)CC[C@@H]12 | > 10 µM | > 10 µM
24 | COc1cc2c(cc1F)CC[C@@H]1[C@@H]2CC[C@]2(C)[C@@H](O)CC[C@@H]12 | 2.1 µM | 2.94 µM
25 | COc1cc2c(cc1NC(C)=O)CC[C@@H]1[C@@H]2CC[C@]2(C)[C@@H](O)CC[C@@H]12 | 1.65 µM | 3.95 µM
